# Test results: patent US20070225339A1, “Compositions and methods for treating rheumatoid arthritis” (priority 2006, published 2007)
# “Also recorded” adds a separate entry of the source.
# Key:
# patients with RA [1] = details: etanercept by injection in combination with methotrexate; cited from earlier work
# healthy subjects = experiment: Phase 1 studies, tolerability; format: in vivo, human
# Protocol: (§1) Five Phase 1 studies of VX-702 in healthy subjects and one Phase 2a study evaluating the safety and tolerability of VX-702 in subjects with unstable angina pectoris (UAP) who were scheduled for percutaneous coronary intervention with or without stenting were performed. Multiple dose studies of VX-702 were conducted for up to 28 days.
# [2] = system: subjects with moderate or severe RA; experiment: Randomized, placebo-controlled, blinded twelve-week study in RA: responses to treatment (ACR, EULAR, DAS28); format: in vivo, human; details: for ACR 20 Response / EULAR Response (moderate or good) / Improvement from baseline in DAS28 / Mean reduction in morning stiffness / Percent Change in Swollen Joints / Percent Change in Tender Joints / Percent Improvement in DAS / Percent reduction in morning stiffness: End of Treatment (Week 12)
# Protocol: VX-702 was examined in a randomized, placebo-controlled, multiple-dose, blinded, dose escalation study in 315 subjects with moderate or severe RA.
# Subjects were divided into 3 approximately equal-sized groups of 100-105 subjects each. In one group, subjects received 5 mg VX-702 once daily or 2.5 mg VX-702 twice daily (total 5 mg/day) for twelve weeks. Another group received 10 mg VX-702 once daily for twelve weeks. Another group subjects received placebo once daily for twelve weeks.
# The subjects had to be between the ages of 18-75 years (inclusive) and have active RA of six months of duration or longer by the ACR revised criteria. The subjects had to have a C-reactive protein (CRP) serum levels of greater than 2 mg/dL at time of randomization, a swollen joint count of eight or greater (of 28) and tender joint count of 10 or greater (of 28). The subjects had to have had no prior treatment with Disease modifying anti-rheumatic drugs (DMARD) therapy or inadequate response to DMARD therapy. If a subject had received prior therapy with an antibody or binding protein to TNF (anti-TNF) or with recombinant IL-1 receptor antagonist (IL-1Ra), the subject may have discontinued treatment due to tolerability reasons but not have discontinued treatment because of an inadequate response. Subjects must also have discontinued DMARD therapy (except for sulfasalazine or hydroxychloroquine) for at least one month prior to randomization. Subjects could receive one NSAID and/or prednisone (≦10 mg/day) if they had been treated at a stable dose for at least one month prior to randomization.
# Responses to treatment were evaluated by changes in ACR (e.g., ACR20) or EULAR criteria. Responses to treatment were measured at Weeks 2, 4, 6, 8, 10 and 12. Safety evaluations were also conducted at these time points. Holter monitoring and ECG were not performed at every time point. Four weeks after completion of the study, responses to treatment and safety evaluations were conducted on subjects.
# ACR Preliminary Definition of Improvement in RA (ACR20):
# Required: ≧20% improvement in tender joint count • ≧20% improvement in swollen joint count And, at least 20% improvement in 3 of the following 5: • Subject pain assessment • Subject global assessment • Physician global assessment • Subject self-assessed disability
# Acute-phase reactant (CRP or ESR)
# The ACR50 and ACR70 responses require ≧50% and ≧70% improvement, respectively, in the same criteria as described for the ACR20 response.
# EULAR is described in Fransen et al., Clinical and Experimental Rheumatology 23 (Suppl. 39): S93-99, 2005, which is hereby incorporated by reference in its entirety. EULAR is based on the Disease Activity Score (DAS), a clinical index of RA disease activity that combines information from swollen joints, tender joints, the acute phase response and general health into one continuous measure of rheumatoid inflammation. DAS28 is an index similar to the original DAS, consisting of a 28 tender joint count (range 0-28), a 28 swollen joint count (range 0-28), erythrocyte sedimentation rate (ESR) and an optional general health assessment on a visual analogue scale (range 0-100).
# [3] = system: subjects with unstable angina pectoris (UAP); experiment: Phase 2a study, safety and tolerability; format: in vivo, human; details: up to 40 mg/day for 5 days
# Protocol: as §1
# Oral bioavailability = details: in vivo
# [4] = system: subjects with moderate or severe RA; experiment: Safety evaluations in the twelve-week RA study (adverse events, laboratory, Holter, ECG); format: in vivo, human; details: for Mean increase in QTcF: end of treatment, baseline approximately 400 msec, placebo −0.6 msec
# Protocol: VX-702 was examined in a randomized, placebo-controlled, multiple-dose, blinded, dose escalation study in 315 subjects with moderate or severe RA. Subjects were divided into 3 approximately equal-sized groups of 100-105 subjects each. In one group, subjects received 5 mg VX-702 once daily or 2.5 mg VX-702 twice daily (total 5 mg/day) for twelve weeks. Another group received 10 mg VX-702 once daily for twelve weeks. Another group subjects received placebo once daily for twelve weeks. Safety evaluations of subjects in the study were also conducted. These included physical examinations, including vital signs measurements (including blood pressure, heart rate, respiration rate, and temperature); clinical laboratory assessments (hematology, chemistry, and urinalysis testing); creatinine clearance; adverse events; Holter monitoring and electrocardiogram (ECG) (12-lead). Responses to treatment were evaluated by changes in ACR (e.g., ACR20) or EULAR criteria. Responses to treatment were measured at Weeks 2, 4, 6, 8, 10 and 12. Safety evaluations were also conducted at these time points. Holter monitoring and ECG were not performed at every time point. Four weeks after completion of the study, responses to treatment and safety evaluations were conducted on subjects.
# patients with RA [5] = details: standard of care in patients with RA; cited from earlier work
compound,measurement,setting,value
etanercept,Clinical remission rate,patients with RA [1],35%
NC(=O)c1ccc(N(C(N)=O)c2c(F)cccc2F)nc1-c1ccc(F)cc1F [VX-702],Severity of adverse events,"healthy subjects; Phase 1, healthy subjects",mild or moderate severity
same,Tolerability,"healthy subjects; dosages of up to 20 mg/day, multiple dose up to 28 days, healthy subjects",moderately to well tolerated
same,ACR 20 Response,[2]; 5 mg VX-702 per day,36%
same,EULAR Response (moderate or good),[2]; 5 mg VX-702 per day,40%
same,Improvement from baseline in DAS28,[2]; 5 mg VX-702 per day,−1.0
same,Mean reduction in morning stiffness,[2]; 5 mg VX-702 per day,-98 min
same,Percent Change in Swollen Joints,[2]; 5 mg VX-702 per day,−35%
same,Percent Change in Tender Joints,[2]; 5 mg VX-702 per day,−28%
same,Percent Improvement in DAS,[2]; 5 mg VX-702 per day,−15%
same,Percent reduction in morning stiffness,[2]; 5 mg VX-702 per day,−21.6%
same,EULAR Response (moderate or good),"[2]; 5 mg VX-702 per day, listed as 702",40%
same,Symptoms of RA compared to placebo,"[2]; 5 mg or 10 mg once daily for twelve weeks, Week 12",showed an improvement in their symptoms
same,ACR 20 Response,[2]; 10 mg VX-702 once daily,40%
same,EULAR Response (moderate or good),[2]; 10 mg VX-702 once daily,44%
same,Improvement from baseline in DAS28,[2]; 10 mg VX-702 once daily,−1.2
same,Mean reduction in morning stiffness,[2]; 10 mg VX-702 once daily,-82 min
same,Percent Change in Swollen Joints,[2]; 10 mg VX-702 once daily,−46%
same,Percent Change in Tender Joints,[2]; 10 mg VX-702 once daily,−36%
same,Percent Improvement in DAS,[2]; 10 mg VX-702 once daily,−18%
same,Percent reduction in morning stiffness,[2]; 10 mg VX-702 once daily,−2.7%
same,"ACR20 response rates, dose-response","[2]; placebo, 5 mg, 10 mg, Jonckheere-Terpstra test, p=0.02",dose-dependent statistically significant increase
same,Severity of adverse events,[3],mild to moderate severity
same,Oral bioavailability,Oral bioavailability,orally bioavailable
same,"Premature discontinuations for adverse events, patients","[4]; 5 mg VX-702, twelve weeks",3%
same,Mean increase in QTcF,[4]; 5 mg group,3 ms
same,"Premature discontinuations for adverse events, patients","[4]; 10 mg VX-702, twelve weeks",5%
same,Mean increase in QTcF,[4]; 10 mg group,6 ms
same,"Effects on laboratory parameters, including liver function tests","[4]; 5 or 10 mg/day, twelve weeks",No clinically significant effects
same,Severity of adverse events,"[4]; 5 or 10 mg/day, twelve weeks",generally mild to moderate; also recorded: generally rated mild or moderate
same,Tolerability,"[4]; 5 or 10 mg/day, twelve weeks",well tolerated
same,Holter monitoring: ventricular ectopic activity and arrhythmias versus placebo,"[4]; 24 to 72-hour continuous EKG, 6 times/patient",did not reveal an increased tendency for arrhythmias
same,"Skin disorders (rash, acne, itching), patients",[4]; VX-702-treated patients,approximately 9%
same,"Isolated serious adverse events, patients",[4]; VX-702-treated patients (5 and 10 mg groups),4-7%
same,"Infections (upper respiratory infections, gastroenteritis, nasopharyngitis, etc), patients","[4]; VX-702-treated patients, placebo 5%",10%
same,"Gastrointestinal disorders (nausea, vomiting, diarrhea), patients","[4]; VX-702-treated patients, placebo 6%",8%
same,Patients with maximal increase in QTcF of >60 msec,[4]; at any point in the study,No patient
same,Patients with ALT value above the upper limit of normal,"[4]; at each on-treatment visit, placebo 1-2%",2-4%
same,Patients discontinued for elevations in liver function tests,[4]; twelve weeks,No patients
same,Patients with ALT elevation to three times the upper limit of normal,[4]; twelve weeks,No patient
CN(Cc1cnc2nc(N)nc(N)c2n1)c1ccc(C(=O)N[C@@H](CCC(=O)O)C(=O)O)cc1 [methotrexate],Response (improvement) often observed,patients with RA [5],less than 50%
